A short description of one data set: in vitro. The settings on record: human, HepG2 or HepG2.117 cells, ATPlite, 3-days incubation (not marked with *), mean value. Type of data set: cell-based. In a few lines: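 Luminescent ATP quantitation served as the viability endpoint following a 3- or 4-day incubation with test compounds.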
On the technique in general: In ATP-based viability assays light output follows the ATP content of the culture.

Data set [1] has as its system HBV (HepG2.117 cell line, inducibly HBV producing). The data set can be described thus: Anti-HBV activity: intracellular HBV DNA by real-time PCR in HepG2.117 cells after 3 days of treatment. Type of data set: cell-based, hepatitis B virus. The settings on record: Hepatitis B virus, HepG2.117, 72 h, HepG2.117 cells, intracellular HBV DNA by real-time PCR, 3 days of treatment, mean value; read-out: EC50 (μM, mean value). In a few lines:
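Tet-off HepG2.117; HBV replication induced (no doxycycline); serial compound dilutions, 3 d; intracellular HBV DNA by real-time PCR, HBV-specific primers/probe.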

Molecules are shown by their SMILES.

The CC50 is the concentration that lowers cell viability or growth by half. The term EC50 denotes the concentration at which the effect is half-maximal. Regarding `CNC(=O)c1ccc(-n2c(NC[C@@H](C)c3cccc(OC)c3)nc3c(c2=O)C[C@@H](C)N(C(=O)c2ccc(Cl)c(Cl)c2)C3)cc1` (single isomer, unassigned) [Compound C436b], the half-maximal cytotoxic concentration (CC50) at 3 days in “in vitro” was 22.3 µM. Further, the EC50 in data set [1] stood at 0.36 µM.

`CNC(=O)c1ccc(-n2c(N[C@H](CC3CC3)c3ccccc3)nc3c(c2=O)C[C@@H](C)N(C(=O)c2ccc(Cl)c(Cl)c2)C3)cc1` (single isomer, unassigned) [Compound C437a] registered a CC50 at 3 days in “in vitro” of 24.6 µM. In addition, the EC50 in data set [1] amounted to 0.16 µM.

In the case of `CNC(=O)c1ccc(-n2c(N[C@@H](CC3CC3)c3ccccc3)nc3c(c2=O)C[C@@H](C)N(C(=O)c2ccc(Cl)c(Cl)c2)C3)cc1` (single isomer, unassigned) [Compound C437b], the CC50 at 3 days in “in vitro” was 29.4 µM. Also, in data set [1], the EC50 stood at 0.91 µM.

For the compound `CNC(=O)c1ccc(-n2c(N[C@H](C)c3ccccc3OC(F)F)nc3c(c2=O)C[C@@H](C)N(C(=O)c2ccc(Cl)c(Cl)c2)C3)cc1` (single isomer, unassigned) [Compound C438a], half-maximal cytotoxicity in “in vitro” (CC50 at 3 days) was put at 29.2 µM. In addition, the half-maximal effective concentration (EC50) in data set [1] worked out at 0.73 µM.

Turning to `CNC(=O)c1ccc(-n2c(N[C@@H](C)c3ccccc3OC(F)F)nc3c(c2=O)C[C@@H](C)N(C(=O)c2ccc(Cl)c(Cl)c2)C3)cc1` (single isomer, unassigned) [Compound C438b], in the data set “in vitro”, the cytotoxic concentration (CC50) at 3 days was found to be 29.9 µM. For the same compound, in data set [1], the EC50 is 0.15 µM.

`CNC(=O)c1ccc(-n2c(N[C@H](C)c3nc[nH]n3)nc3c(c2=O)C[C@@H](C)N(C(=O)c2ccc(Cl)c(Cl)c2)C3)cc1` (single isomer, unassigned) [Compound C439a]: the CC50 at 3 days in “in vitro” was greater than 50 µM. In addition, the EC50 in data set [1] is greater than 10 µM.

`CNC(=O)c1ccc(-n2c(N[C@@H](C)c3nc[nH]n3)nc3c(c2=O)C[C@@H](C)N(C(=O)c2ccc(Cl)c(Cl)c2)C3)cc1` (single isomer, unassigned) [Compound C439b] showed a half-maximal cytotoxic concentration (CC50) at 3 days in the data set “in vitro” greater than 50 µM. For the same compound, the EC50 in data set [1] was greater than 10 µM.

For the compound `CNC(=O)c1ccc(-n2c(N[C@H](C)c3ccc(OC(F)(F)F)cc3)nc3c(c2=O)C[C@@H](C)N(C(=O)c2ccc(Cl)c(Cl)c2)C3)cc1` (single isomer, unassigned) [Compound C440a], in the data set “in vitro”, it took 25 µM to reach half-maximal cytotoxicity (CC50 at 3 days). In addition, in data set [1], the EC50 came to 5.42 µM.

In turn, `CNC(=O)c1ccc(-n2c(N[C@@H](C)c3ccc(OC(F)(F)F)cc3)nc3c(c2=O)C[C@@H](C)N(C(=O)c2ccc(Cl)c(Cl)c2)C3)cc1` (single isomer, unassigned) [Compound C440b] yielded a cytotoxic concentration (CC50) at 3 days in the data set “in vitro” of 6.3 µM. In data set [1], the concentration giving a half-maximal response (EC50) came out at 0.07 µM.

In turn, `CNC(=O)c1ccc(-n2c(N[C@H](C)c3ccc(C#N)cc3)nc3c(c2=O)C[C@@H](C)N(C(=O)c2ccc(Cl)c(Cl)c2)C3)cc1` (single isomer, unassigned) [Compound C441a] registered a half-maximal cytotoxic concentration (CC50) at 3 days in “in vitro” greater than 50 µM. Further, in data set [1], the EC50 is 0.22 µM.

As to `CNC(=O)c1ccc(-n2c(N[C@@H](C)c3ccc(C#N)cc3)nc3c(c2=O)C[C@@H](C)N(C(=O)c2ccc(Cl)c(Cl)c2)C3)cc1` (single isomer, unassigned) [Compound C441b], the CC50 at 3 days in the data set “in vitro” is greater than 50 µM. Moreover, the half-maximal effective concentration (EC50) in data set [1] was determined as 2.75 µM.

For `CNC(=O)c1ccc(-n2c(N[C@H](C)c3ccc4[nH]ccc4c3)nc3c(c2=O)C[C@@H](C)N(C(=O)c2ccc(Cl)c(Cl)c2)C3)cc1` (single isomer, unassigned) [Compound C449a], in “in vitro”, the CC50 at 3 days is greater than 50 µM. The 50% effective concentration (EC50) in data set [1] turned out to be 0.04 µM.

`CNC(=O)c1ccc(-n2c(N[C@@H](C)c3ccc4[nH]ccc4c3)nc3c(c2=O)C[C@@H](C)N(C(=O)c2ccc(Cl)c(Cl)c2)C3)cc1` (single isomer, unassigned) [Compound C449b] displayed a 50% cytotoxic concentration (CC50) at 3 days in “in vitro” of 46.4 µM. Besides, the EC50 in data set [1] was found to be 0.2 µM.

`CNC(=O)c1ccc(-n2c(N[C@H](C)c3ccc4c(ccn4C)c3)nc3c(c2=O)C[C@@H](C)N(C(=O)c2ccc(Cl)c(Cl)c2)C3)cc1` (single isomer, unassigned) [Compound C450a] displayed a 50% cytotoxic concentration (CC50) at 3 days in the data set “in vitro” greater than 50 µM. The half-maximal effective concentration (EC50) in data set [1] was found to be 0.02 µM.

In “in vitro”, `CNC(=O)c1ccc(-n2c(N[C@@H](C)c3ccc4c(ccn4C)c3)nc3c(c2=O)C[C@@H](C)N(C(=O)c2ccc(Cl)c(Cl)c2)C3)cc1` (single isomer, unassigned) [Compound C450b] came in with a CC50 at 3 days greater than 50 µM. In addition, the EC50 in data set [1] turned out to be 0.18 µM.

Consider `CNC(=O)c1ccc(-n2c(N[C@@H]3C[C@H]3c3ccc(OC)cc3)nc3c(c2=O)C[C@@H](C)N(C(=O)c2ccc(Cl)c(Cl)c2)C3)cc1` (single isomer, unassigned) [Compound C452a], for which the CC50 at 3 days in the data set “in vitro” was greater than 25 µM. Moreover, the 50% effective concentration (EC50) in data set [1] was determined as 1.44 µM.

For `CNC(=O)c1ccc(-n2c(N[C@H](C)C(C)(C)C)nc3c(c2=O)C[C@@H](C)N(C(=O)c2ccc(Cl)c(Cl)c2)C3)cc1` (single isomer, unassigned) [Compound C459a], in “in vitro”, the cytotoxic concentration (CC50) at 3 days was 31.9 µM. Also, in data set [1], the concentration for a half-maximal effect (EC50) is 0.44 µM.

With `CNC(=O)c1ccc(-n2c(N[C@@H](C)C(C)(C)C)nc3c(c2=O)C[C@@H](C)N(C(=O)c2ccc(Cl)c(Cl)c2)C3)cc1` (single isomer, unassigned) [Compound C459b], the CC50 at 3 days in “in vitro” was determined as 32.5 µM. For the same compound, in data set [1], the EC50 was found to be 0.63 µM.

Take `CC(=O)Nc1ccc(-n2c(N[C@H](C)c3ccc4[nH]ncc4c3)nc3c(c2=O)C[C@@H](C)N(C(=O)c2ccc(Cl)c(Cl)c2)C3)cc1` (single isomer, unassigned) [Compound C462a]: in “in vitro”, the CC50 at 3 days is greater than 50 µM. For the same compound, in data set [1], the EC50 worked out at 1.24 µM.

Take `CC(=O)Nc1ccc(-n2c(N[C@@H](C)c3ccc4[nH]ncc4c3)nc3c(c2=O)C[C@@H](C)N(C(=O)c2ccc(Cl)c(Cl)c2)C3)cc1` (single isomer, unassigned) [Compound C462b]: the CC50 at 3 days in the data set “in vitro” was greater than 50 µM. In addition, the EC50 in data set [1] is 0.37 µM.

In the data set “in vitro”, `C[C@@H]1Cc2c(nc(N[C@H](C)c3ccc(OC(F)(F)F)cc3)n(-c3ccc(-n4cccn4)cc3)c2=O)CN1C(=O)c1ccc(Cl)c(Cl)c1` (single isomer, unassigned) [Compound C463a] displayed a CC50 at 3 days greater than 50 µM. Besides, the EC50 in data set [1] worked out at 0.24 µM.

`C[C@H](Nc1nc2c(c(=O)n1-c1ccc(-n3cccn3)cc1)C[C@@H](C)N(C(=O)c1ccc(Cl)c(Cl)c1)C2)c1ccc(OC(F)(F)F)cc1` (single isomer, unassigned) [Compound C463b]: the 50% cytotoxic concentration (CC50) at 3 days in the data set “in vitro” was greater than 50 µM. For the same compound, in data set [1], the concentration giving a half-maximal response (EC50) worked out at 7.21 µM.

Regarding `CNC(=O)c1ccc(-n2c(N[C@@H]3CCOc4ccccc43)nc3c(c2=O)C[C@@H](C)N(C(=O)c2ccc(Cl)c(Cl)c2)C3)cc1` (single isomer, unassigned) [Compound C526a], the CC50 at 3 days in “in vitro” was greater than 50 µM. In addition, the EC50 in data set [1] was found to be 0.28 µM.

The compound `CNC(=O)c1ccc(-n2c(N[C@H]3CCOc4ccccc43)nc3c(c2=O)C[C@@H](C)N(C(=O)c2ccc(Cl)c(Cl)c2)C3)cc1` (single isomer, unassigned) [Compound C526b] showed a CC50 at 3 days in the data set “in vitro” of 16.3 µM. Also, the EC50 in data set [1] was 5.42 µM.

`CNC(=O)c1ccc(-n2c(N[C@@H]3CCOc4cc(OC)ccc43)nc3c(c2=O)C[C@@H](C)N(C(=O)c2ccc(Cl)c(Cl)c2)C3)cc1` (single isomer, unassigned) [Compound C527a]: the CC50 at 3 days in the data set “in vitro” was greater than 50 µM. For the same compound, in data set [1], the concentration giving a half-maximal response (EC50) worked out at 0.39 µM.

For `CNC(=O)c1ccc(-n2c(N[C@H]3CCOc4cc(OC)ccc43)nc3c(c2=O)C[C@@H](C)N(C(=O)c2ccc(Cl)c(Cl)c2)C3)cc1` (single isomer, unassigned) [Compound C527b], in “in vitro”, the CC50 at 3 days was greater than 50 µM. For the same compound, in data set [1], the 50% effective concentration (EC50) was found to be 0.65 µM.

In the data set “in vitro”, `CNC(=O)c1ccc([C@@H](C)Nc2nc3c(c(=O)n2-c2ccc(NC(C)=O)cc2)C[C@@H](C)N(C(=O)c2ccc(Cl)c(Cl)c2)C3)cc1` (single isomer, unassigned) [Compound C528a] had a CC50 at 3 days greater than 50 µM. Further, the EC50 in data set [1] is 3.38 µM.

`CNC(=O)c1ccc([C@H](C)Nc2nc3c(c(=O)n2-c2ccc(NC(C)=O)cc2)C[C@@H](C)N(C(=O)c2ccc(Cl)c(Cl)c2)C3)cc1` (single isomer, unassigned) [Compound C528b] came in with a CC50 at 3 days in “in vitro” greater than 50 µM. Further, the 50% effective concentration (EC50) in data set [1] is greater than 10 µM.

In the data set “in vitro”, `CNC(=O)c1ccc(-n2c(N[C@H](C)c3ccc4[nH]ncc4c3)nc3c(c2=O)C[C@@H](C)N(C(=O)c2ccc(Cl)c(Cl)c2)C3)cc1` (single isomer, unassigned) [Compound C529a] gave a CC50 at 3 days greater than 50 µM. Further, in data set [1], the EC50 was 0.16 µM.

In the case of `CNC(=O)c1ccc(-n2c(N[C@@H](C)c3ccc4[nH]ncc4c3)nc3c(c2=O)C[C@@H](C)N(C(=O)c2ccc(Cl)c(Cl)c2)C3)cc1` (single isomer, unassigned) [Compound C529b], the CC50 at 3 days in “in vitro” was greater than 50 µM. Also, the half-maximal effective concentration (EC50) in data set [1] is 0.72 µM.

In turn, `CNC(=O)c1ccc([C@@H](C)Nc2nc3c(c(=O)n2-c2ccc(C(=O)NC)cc2)C[C@@H](C)N(C(=O)c2ccc(Cl)c(Cl)c2)C3)cc1` (single isomer, unassigned) [Compound C530a] gave a 50% cytotoxic concentration (CC50) at 3 days in the data set “in vitro” greater than 50 µM. Besides, the EC50 in data set [1] was greater than 7.4 µM.

On to `CNC(=O)c1ccc([C@H](C)Nc2nc3c(c(=O)n2-c2ccc(C(=O)NC)cc2)C[C@@H](C)N(C(=O)c2ccc(Cl)c(Cl)c2)C3)cc1` (single isomer, unassigned) [Compound C530b], for which the half-maximal cytotoxic concentration (CC50) at 3 days in “in vitro” is greater than 50 µM. Further, in data set [1], the EC50 is greater than 10 µM.

Regarding `CNC(=O)c1ccc(-n2c(NC(C)C)nc3c(c2=O)C[C@@H](C)N(C(=O)c2ccc(Cl)c(C(F)(F)F)c2)C3)c(Cl)c1` (single isomer, unassigned) [Compound C639a], in “in vitro”, the 50% cytotoxic concentration (CC50) at 3 days is greater than 50 µM. Further, the EC50 in data set [1] was found to be 0.02 µM.

Compound `CNC(=O)c1ccc(-n2c(N[C@H](C)c3ccc4[nH]cnc4c3)nc3c(c2=O)C[C@@H](C)N(C(=O)c2ccc(Cl)c(Cl)c2)C3)cc1` (single isomer, unassigned) [Compound C647a] returned a 50% cytotoxic concentration (CC50) at 3 days in the data set “in vitro” greater than 50 µM. Moreover, in data set [1], the EC50 is greater than 2.5 µM.

The values above are taken from patent US20230091047A1 (priority 2019, published 2023).
